Assay results reported in patent US12398158B2, “Fluorescent GTP analogues and use” (CISBIO BIOASSAYS, priority 2019, dated 2025).

Experiments:
Gαi protein [1] = assay: TR-FRET (HTRF) binding test of GTP analog-donor / anti-Gαi antibody DSV36S-d2, HEK293 Delta Opioid membranes; conditions: HEK293 membranes expressing Delta Opioid GPCR and Gαi, 1 μg per well; analog 1 nM; absence vs presence of GTPγS 100 μM
Text: (§1) • membrane preparations of cells expressing GPCRs and the G-alpha-i protein (Gαi) were purchased from Perkin Elmer or Euroscreen. The table below lists the cell backgrounds and references of the different samples used:
(§2) • the DSV36 antibody was generated by Cisbio Bioassays and is available rom Cisbio Bioassays on request (under the reference DSV36S). The antibody was labeled with the fluorescent probe d2 (red acceptor) compatible for TR-FRET detection. The DSV36S antibody binds at the switch II of the Gαi protein. • the GTP and GTPγS nucleotides were purchased from Sigma Aldrich (respective catalog references G8877 and G8634). • the 384-well, low volume, white plates with a white background were purchased from Greiner Bio One (catalog reference 784075). • the non-hydrolyzable/slowly hydrolyzable GTP analogs labeled with donor fluorophores of lanthanide complex type were synthesized at Cisbio Bioassays. Methods Preparation of the Reagents
Except for other specific mention, all the reagents were diluted in 50 mM Tris HCl pH 7.4, 10 mM MgCl2, 0.1% BSA, 10 mM NaCl, buffer. The membranes were prepared 4× to distribute 1 or 10 μg/well (amount specified in the key of each figure). The GTPγS nucleotide (non-specific signal condition) was prepared 6.67× to obtain a final concentration in the wells of 100 μM. The anti-Gαi antibody DSV36S-d2 used for the detection was prepared 4× to target the final concentration in the wells of 10 nM. […]
(§3) The non-specific signal (background fluorescence noise) was measured with wells containing an excess of GTPγS (10 or 100 μM).
(§4) The plates were incubated at 21° C. for 20 h and then the HTRF signal was measured on the PHERAstar reader (BMG Labtech) with the following configuration: • Module: HTRF (Excitation 337 nm, Emission 665 nm and 620 nm) • Excitation: laser, 40 flashes or lamp, 100 flashes • Reading window: delays: 60 μs-Integration: […] Signal Processing
(§5) From the raw signals at 665 nm and 620 nm, the HTRF Ratio was calculated according to the following formula: HTRF Ratio=[(Signal at 665 nm)/(Signal at 620 nm)]×10 000 Test Format […]

Gαi protein [2] = assay: TR-FRET (HTRF) binding test of GTP analog-donor / anti-Gαi antibody DSV36S-d2, CHO-K1 Dopamine D2S membranes; conditions: CHO-K1 membranes expressing Dopamine D2S GPCR and Gαi, 10 μg per well; analog 6 nM; absence vs presence of GTPγS 100 μM
Text: as §1
• the DSV36 antibody was generated by Cisbio Bioassays and is available rom Cisbio Bioassays on request (under the reference DSV36S). The antibody was labeled with the fluorescent probe d2 (red acceptor) compatible for TR-FRET detection. […]
as §3, §4, §5

Gαi protein [3] = assay: TR-FRET (HTRF) binding test of GTP analog-donor / anti-Gαi antibody DSV36S-d2, CHO-K1 Delta Opioid membranes
Text: as §1, §2
Except for other specific mention, all the reagents were diluted in 50 mM Tris HCl pH 7.4, 10 mM MgCl2, 0.1% BSA, 10 mM NaCl, buffer. The membranes were prepared 4× to distribute 1 or 10 μg/well (amount specified in the key of each figure). The GTPγS nucleotide (non-specific signal condition) was prepared 6.67× to obtain a final concentration in the wells of 100 μM. The anti-Gαi antibody DSV36S-d2 used for the detection was prepared 4× to target the final concentration in the wells of 10 nM. The non-hydrolyzable/slowly hydrolyzable GTP analogs labeled with fluorescent donor probes (lanthanide complexes) were prepared 4× to target the final concentrations in the wells mentioned in the keys of each figure.
• Membranes expressing GPCR and the G protein: 5 μl • GTPγS buffer or nucleotide (for the non-specific signal condition): 3 μl • Non-hydrolyzable/slowly hydrolyzable GTP analog-donor: 5 μl • Anti-Gαi antibody-acceptor (DSV36S-d2): 5 μl • Buffer: 2 μl
as §3, §4
From the raw signals at 665 nm and 620 nm, the HTRF Ratio was calculated according to the following formula: HTRF Ratio=[(Signal at 665 nm)/(Signal at 620 nm)]×10 000 Test Format
FIG. 2 illustrates the test format used to detect the binding of the compounds of formula (I) to the G protein. […] When the two FRET partners (test compound and anti-Gα protein antibody) bind to the same Gα protein, a FRET signal appears (left part of the figure: “Total Signal”) and is distinguished from the non-specific signal (background noise corresponding to the right part of the figure: “Non-Specific Signal”), which comprises a large excess of unlabeled GTPγS (displacement of the fluorescent GTP analog). […]
GTPgN-octyl-C2 was used at a final concentration of 6 nM in the wells. The membranes were incubated in the absence or in the presence of a large excess of GTPγS (100 μM). […]
GTPgN-octyl-C2 was used at a final concentration of 2 or 6 nM in the wells. The membranes were incubated in the absence or in the presence of a large excess of GTPγS (100 μM).

[4] = CHO-K1 membranes expressing Delta Opioid GPCR and Gαi, 10 μg per well, analog 6 nM, absence vs presence of GTPγS 100 μM

Row | Molecule | HTRF Ratio total signal/non-specific signal (Gαi protein [1]) | HTRF Ratio total signal/non-specific signal (Gαi protein [3]; [4]) | also measured
1 | Nc1nc2c(ncn2[C@@H]2O[C@H](COP(=O)(O)OP(=O)(O)OP(=O)(O)NCCCCCCCCNc3nc(Cl)nc(Nc4ccc(-c5cc(-c6cccc(CN(CC(=O)O)CC(=O)O)n6)nc(-c6cccc(CN(CC(=O)O)CC(=O)O)n6)c5)cc4)n3)C(O)[C@@H]2O)c(=O)[nH]1 (some centres unmarked) [GTPgN-octyl-C3, GTP-gamma-N-octyl-C3] | 1.4 |  | 
2 | Nc1nc2c(ncn2[C@@H]2O[C@H](COP(=O)(O)OP(=O)(O)OP(=O)(O)Nc3ccc(-c4cc(-c5cccc(CN(CC(=O)O)CC(=O)O)n5)nc(-c5cccc(CN(CC(=O)O)CC(=O)O)n5)c4)cc3)C(O)[C@@H]2O)c(=O)[nH]1 (some centres unmarked) [GTPgN—C3, GTP-gamma-N—C3] | 1.7 |  | 
3 | GTP-gamma-N-octyl-C2 [GTPgN-octyl-C2] |  | 12.4 | HTRF Ratio total signal/non-specific signal (Gαi protein [2]): 3.8; signal amplitude (S/N), effect of amount of membrane (Gαi protein [3]; CHO-K1 Delta Opioid membranes increased from 1 to 10 μg per well, FIG. 11A): increase in the signal amplitude (S/N) is observed; amplitude of the signal (S/N), effect of analog concentration (Gαi protein [3]; CHO-K1 Delta Opioid membranes, GTPgN-octyl-C2 increased from 2 to 6 nM, FIG. 11B): increase in the amplitude of the signal (S/N) is observed
4 | GTP-gamma-N-octyl-C11 [GTPgN-octyl-C11] |  | 7.6 | 
5 | GTP-gamma-N-octyl-thiosuccinimidyl-C2 [GTPgN-octyl-thiosuccinimidyl-C2] |  |  | HTRF Ratio total signal/non-specific signal (Gαi protein [3]; CHO-K1 Delta Opioid membranes 10 μg per well, analog 7.5 nM, buffer 60 mM MgCl2, 150 mM NaCl, presence vs absence of membrane preparation): 2.8
6 | GTP-gamma-N—C2 [GTPgN—C2] |  | 16.6 | 
7 | GTP-gamma-O-hexyl-C2 [GTPgO-hexyl-C2] |  | 7.1 | 
8 | GTP-gamma-O-hexyl-C3 [GTPgO-hexyl-C3] | 1.3 |  | 
